According to PMC4631478, “Structure of AadA from Salmonella enterica: a monomeric aminoglycoside (3′′)(9) adenyltransferase” (Acta Crystallographica Section D: Biological Crystallography, 2015):
Residue numbers refer to the chain shown, from its start. Like-named read-outs stand apart in the source and are kept apart here.

How the values were obtained:
AadA R192A = target: T1, AadA R192A (Salmonella typhimurium, UniProt Q8ZPX9, R192A); test: ITC binding, AadA R192A; set-up: species or system Salmonella enterica; conditions: for Kd: in the presence of ATP, read-out: K d of substrate ligand (streptomycin / spectinomycin)
T1 construct: made in house; host or cells: Escherichia coli BL21 Star
T1 sequence (Q8ZPX9 1-262 R192A): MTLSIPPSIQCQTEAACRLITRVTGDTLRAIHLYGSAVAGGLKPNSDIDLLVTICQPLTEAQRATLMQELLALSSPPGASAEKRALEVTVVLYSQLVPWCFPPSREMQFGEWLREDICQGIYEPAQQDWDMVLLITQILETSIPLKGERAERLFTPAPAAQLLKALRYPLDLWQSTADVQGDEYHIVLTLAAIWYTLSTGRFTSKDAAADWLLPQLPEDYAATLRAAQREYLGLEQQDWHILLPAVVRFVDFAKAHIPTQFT
Description: (§1) Binding studies were performed at 25°C using a MicroCal iTC200 instrument (GE Healthcare). Wild-type or mutant AadA at 20–30 µM concentration was dialyzed overnight against 50 mM Tris–HCl pH 7.5, 200 mM NaCl, 5 mM MgCl2, 1 mM tris(2-carboxyethyl)phosphine and titrated with 500–1000 µM ATP, streptomycin (Sigma) or spectinomycin (Sigma) freshly dissolved in the same batch of dialysis buffer prior to each experiment. For titration of streptomycin/spectinomycin in the presence of ATP, a first titration of AadA with ATP to saturation was followed by a second titration with streptomycin/spectinomycin in buffer containing an equivalent concentration of ATP as in the cell. In this way, heats of dilution of ATP were avoided. At least […] consecutive injections of 2 µl were applied at 2 min intervals. The data were analyzed using the MicroCal Analysis plugin in Origin. All ITC data were analyzed assuming one set of binding sites. Each experiment was performed at least twice. For spectinomycin, the concentration used to fit the data was adjusted to the estimated active concentration in binding to AadA, assuming 1:1 binding.

AadA wild type = target: T2, AadA wild type (Salmonella typhimurium, UniProt Q8ZPX9); test: ITC binding, wild-type AadA; set-up: species or system Salmonella enterica; conditions: for Kd: ITC; for binding to AadA in the absence of ATP (ITC): data not shown
T2 construct: made in house; host or cells: Escherichia coli BL21 Star
T2 sequence (Q8ZPX9 1-262): T1 sequence (Q8ZPX9 1-262 R192A) with A192R
Description: as §1

[1] = test system: AadA Glu87 mutants (E87A and E87Q); test: ITC binding, Glu87 mutants of AadA stated together; set-up: species or system Salmonella enterica
Description: as §1

AadA K205A = target: T3, AadA K205A (Salmonella typhimurium, UniProt Q8ZPX9, K205A); test: ITC binding, AadA K205A; set-up: species or system Salmonella enterica; conditions: for Kd: in the presence of ATP, read-out: K d of substrate ligand (streptomycin / spectinomycin)
T3 construct: made in house; host or cells: Escherichia coli BL21 Star
T3 sequence (Q8ZPX9 1-262 K205A): T1 sequence (Q8ZPX9 1-262 R192A) with A192R, K205A
Description: as §1

AadA E87A = target: T4, AadA E87A (Salmonella typhimurium, UniProt Q8ZPX9, E87A); test: ITC binding, AadA E87A; set-up: species or system Salmonella enterica; conditions: 25°C, in the presence of ATP, nb = no binding detected
T4 construct: made in house; host or cells: Escherichia coli BL21 Star
T4 sequence (Q8ZPX9 1-262 E87A): T1 sequence (Q8ZPX9 1-262 R192A) with E87A, A192R
Description: as §1

bacterial growth = test system: bacterial growth; set-up: method as in vendor (Sigma); conditions: as sold; as estimated from a bacterial growth assay; ref vendor (Sigma); cited from earlier work
AadA D182N = target: T5, AadA D182N (Salmonella typhimurium, UniProt Q8ZPX9, D182N); test: ITC binding, AadA D182N; set-up: species or system Salmonella enterica; conditions: 25°C, in the presence of ATP, read-out: K d of substrate ligand (streptomycin / spectinomycin)
T5 construct: made in house; host or cells: Escherichia coli BL21 Star
T5 sequence (Q8ZPX9 1-262 D182N): T1 sequence (Q8ZPX9 1-262 R192A) with D182N, A192R
Description: as §1

AadA E87Q = target: T6, AadA E87Q (Salmonella typhimurium, UniProt Q8ZPX9, E87Q); test: ITC binding, AadA E87Q; set-up: species or system Salmonella enterica; conditions: 25°C, in the presence of ATP, nb = no binding detected
T6 construct: made in house; host or cells: Escherichia coli BL21 Star
T6 sequence (Q8ZPX9 1-262 E87Q): T1 sequence (Q8ZPX9 1-262 R192A) with E87Q, A192R
Description: as §1

AadA W112F = target: T7, AadA W112F (Salmonella typhimurium, UniProt Q8ZPX9, W112F); test: ITC binding, AadA W112F; set-up: species or system Salmonella enterica; conditions: 25°C, in the presence of ATP, read-out: K d of substrate ligand (streptomycin / spectinomycin)
T7 construct: made in house; host or cells: Escherichia coli BL21 Star
T7 sequence (Q8ZPX9 1-262 W112F): T1 sequence (Q8ZPX9 1-262 R192A) with W112F, A192R
Description: as §1

[2] = ITC, 25°C, 5 mM MgCl2, nb = no binding detected
[3] = 25°C, in the presence of ATP, wild type AadA, read-out: K d of substrate ligand (streptomycin / spectinomycin)

## Nc1ncnc2c1ncn2[C@@H]1O[C@H](COP(=O)(O)OP(=O)(O)OP(=O)(O)O)[C@@H](O)[C@H]1O [ATP]
AadA R192A
  ATP binding (ITC): no ATP binding could be detected
AadA R192A; [2]
  K d(ATP): nb
AadA wild type; wild-type AadA, read-out: K d of ATP
  Kd: 13000 nM
[1]; E87Q and E87A vs wild type, ITC
  lower affinity for ATP compared with the wild type: threefold to fourfold lower affinity
AadA K205A
  ATP binding (ITC): no ATP binding could be detected
AadA K205A; [2]
  K d(ATP): nb

## CN[C@@H]1[C@H](O)[C@H](NC)[C@H]2O[C@@]3(O)C(=O)C[C@@H](C)O[C@H]3O[C@@H]2[C@H]1O [Spectinomycin, spectinomycin]
AadA E87A
  K d of substrate ligand (streptomycin / spectinomycin): nb
Bacterial growth
  potency: 603 µg/mg
AadA D182N
  Kd: > 30000 nM
AadA E87Q
  K d of substrate ligand (streptomycin / spectinomycin): nb
AadA R192A; ITC, 25°C
  Kd: > 30000 nM
AadA W112F
  Kd: 600 nM
AadA wild type; [3]
  Kd: 500 nM
AadA wild type
  binding to AadA in the absence of ATP (ITC): did not display detectable binding
AadA wild type; from fit of the ITC data assuming 1:1 binding
  activity in binding to AadA, of the assumed active concentration: 31%
[1]; Glu87 mutants
  binding of spectinomycin (ITC): no measurable binding
AadA K205A; ITC, 25°C
  Kd: > 10000 nM

## [H]/N=C(/N)N[C@H]1[C@H](O)[C@@H](O)[C@H](O[C@@H]2O[C@@H](C)[C@](O)(C=O)[C@H]2O[C@@H]2O[C@@H](CO)[C@H](O)[C@@H](O)[C@@H]2NC)[C@@H](N/C(N)=N\[H])[C@@H]1O [Streptomycin, streptomycin]
AadA D182N
  Kd: 700 nM
AadA R192A; ITC, 25°C
  Kd: > 100000 nM
AadA W112F
  Kd: 800 nM
AadA wild type; [3]
  Kd: 500 nM
AadA wild type
  binding to AadA in the absence of ATP (ITC): did not display detectable binding
[1]; Glu87 mutants vs wild type, ITC
  lowered affinity for streptomycin: 20–40 fold
AadA K205A; ITC, 25°C
  Kd: 1300 nM

## Nc1ncnc2c1ncn2[C@@H]1O[C@H](COP(=O)(O)CP(=O)(O)OP(=O)(O)O)[C@@H](O)[C@H]1O [AMPCPP]
AadA wild type; nucleotide titrated alone
  binding to wild-type AadA (ITC): did not show any detectable binding
